Some results are limits rather than exact numbers.

Data set [1] in a line: Selectivity ratio of IC50 for inhibition of MARK3 (unknown origin) to IC50 for inhibition of NUAK1 (unknown origin).
Data set [2] is described as follows: Unbound brain-to-plasma concentration ratio (Kp,uu, brain) in ICR mouse at 2.5 mg/kg, iv and measured upto 6 hrs by LC-MS/MS analysis. To be noted: read-out: K(p,uu,brain). It is filed as ADME, organism-based.
Data set [3] can be described thus: Protein binding in mouse plasma assessed as fraction unbound at 10 uM incubated for 6 hrs with rotation by dialysis based LC-MS/MS analysis. It is filed as ADME, cell-free.

As to `CN1C2CC1CN(c1ccc(Nc3ncc4ccn(CC5CCOCC5)c4n3)cc1)C2`, the Ratio IC50 in data set [1] came out at 2000. In the case of `CC(C)N1CCN(c2ccc(Nc3ncc4ccn(CC5CCOC(C)(C)C5)c4n3)cc2)CC1` (stereo not given), in data set [1], the Ratio IC50 was determined as 2290.

For `Cc1cc(=O)n(C2CCCC2)c2nc(Nc3ccc(N4CCNCC4)cc3)ncc12`, the Ratio IC50 in data set [1] is more than 11.

Turning to `CN1CCN(c2ccc(Nc3ncc4cc(C#N)c(=O)n(C5CCCC5)c4n3)cc2)CC1` [NARAZACICLIB], the Kp uu at 6 h in data set [2] is 0.036. Further, the fraction unbound (usually free concentration divided by total concentration) at 6 h, 10 µM in data set [3] is 0.006.

Values taken from ChEMBL document CHEMBL6153167, “Development of the Pyrido[2,3-d]pyrimidin-7(8H)-one Scaffold toward Potent and Selective NUAK1 Inhibitors” (ACS Med Chem Lett, 2025).
